Measured values published in patent US5041426A, “Immune system enhancing 3-β-d-ribofuranosylthiazolo[4,5-d]pyridimine nucleosides and nucleotides” (priority 1988, dated 1991).
Values joined by “and” are separate entries in the source; they are usually repeats but may differ in a detail not shown here. Identical values can stand only once. Like-named read-outs stand apart in the source and are kept apart here.

How the values were obtained:
[1] = tested on: Mastocytoma (P815) tumor cells; experiment: In vivo potentiation of cytotoxic lymphocytes activity against mastocytoma tumor cells; design: species or system mouse; conditions: for % Cytotoxicity: DBA/2 mice, compound 7 2 mg/mouse, interleukin-2 50 U per mouse
Protocol: ^a Ten mice in each group were inoculated with 2 × 10^6
tumor cells. After 5 hours, saline or nucleoside compound 7 solution (2
mg/mouse) was administered to each mouse. On days 3,5,7 or 9, spleen cell
were isolated and their cytotoxicity was determined against P815 tumor
cells as described in Gonzales and Sharma.
Compound 7 was tested to determine whether or not it can increase cytotoxic lymphocytes response against mastocytoma tumor cells. In the test mice were immunized with mastocytoma cells (P815) and after 5 hours compound 7 as a solution was given in a dose of […] per mouse.

San Angelo Virus [2] = type: in vivo, mouse; conditions: compound 7 5 mg/kg at -24 h, saline days 0-6; of mice that died
Banzi Virus = type: in vivo, mouse; conditions: compound 7 100 mg/kg at -24 h, saline days 0-6; of mice that died
sheep red blood cells = experiment: Primary anti-sheep red blood cell antibody response in mice (plaque assay); type: in vivo, mouse; conditions: C57BL/6, + SRBC, day 6
Protocol: Compound 7 was tested to determine its effects on primary antibody response against sheep red blood cells in vivo. Mice (C57BL/6) in groups of 4 were injected intraperitoneally with 0.1% sheep red blood cell suspended in saline. At various times compound 7 in various concentrations was administered intraperitoneally.
^a Groups of four C57BL/6 mice were injected i.p. with 6.5 ×
10^6 SRBC and various doses of compound 7. The number of PFC to SRBC
(shown as mean ± SD) were determined on day 6 as described in Cheever.
For Table 9 the number of antibody cells was determined by the modified Jerne, Nordin plaque assay as disclosed in Jerne, N. K., Nordin, A. A., Science 140:405, 1963.

Human Coronavirus = experiment: Antiviral activity against human coronavirus infection in 14 day old mice; conditions: half daily doses at -24 and -18 h, of mice that died
[3] = tested on: Encephalomyocarditis virus; experiment: Single versus multiple treatments on Encephalomyocarditis virus infection in mice; type: in vivo, mouse; conditions: for Mean Survival Time: of mice that died
San Angelo Virus [4] = type: in vivo, mouse; conditions: for Mean Survival Time: Time (21 days)
[5] = tested on: Reticulum-cell Sarcoma M5076; experiment: Reduction of reticulum-cell sarcoma metastatic foci in mice; type: in vivo, mouse
Protocol: Utilizing the protocol of Alessandri, G., Giavazzi, R., Falautano, P., Spreafico, F., Garattini, S., and Mantovani, A., European J. Cancer, 17:651-658, 1981, the antimetastatic activity of Compound 7 is seen in a sarcoma M5076 tumor system.
Fragments of reticulum-cell sarcoma M5076 were introduced into mice. The animals were treated with compound 7 for 20 days at various dosages. After treatment, the required tissues were collected, fixed in Bouin's solution and subjected to microscopic observation to enumerate metastatic foci. The results are shown in table 26 as the number of metastatic foci and table 27 as the number of mice with metastatic foci. In table 26 both the range and the median number of foci for each test group is indicated.
^a Fragments of reticulumcell sarcoma M5076 (≈14 mg) were
implanted sc in the left flank of BDF1 female mice and ip bolus
injections of drug were initiated 24 hrs later. The drug was delivered on
the basis of 0.01 ml/g mouse weight. Control mice received a 0.09%
solution of NaCl delivered on the same basis. Seven mice were used per
treatment group. Treatment give qd for days 1- 20.

murine B16 melanoma = experiment: Artificially induced pulmonary metastatic foci of B16 melanoma in mice; type: in vivo, mouse; conditions: Group 2: 100 mg/kg i.p. 24 h before tumor injection
Protocol: Test drug, compound 7, was given to groups of test animals. The groups includes a first control group, a second group given drug 24 hours prior to intravenous tumor injection, a third group given drug both 24 hours prior to intravenously tumor injection and 72 hours post tumor injection and a fourth group given drug 72 hours post tumor injection.
^a 10 week old, female C57B1/6 mice in groups of 5 each were injected
intravenously with 5 × 10^5 of B16 melanoma tumor cells. The
mice in groups 2, 3 and 4 were treated by injection of 100 mg/kg of drug

[6] = tested on: Herpes Simplex Virus Type 2; experiment: Antiviral activity against Herpes simplex virus type 2 infection in mice; type: in vivo, mouse; conditions: for Mean Survival Time: at -48, -24, and -2 h
Protocol: In this test Compound 7 was tested against both Herpes Simplex Type 1 Virus and Herpes Simplex Type 2 Virus. […] In each of these tests a placebo was utilized for control purposes. The survival time reflects survival time of those animals which succumbed during the test. […]
^b A 2% sodium bicarbonate solution was used as the placebo and as
diluent for Compound -7.
^c Statistically significant (p < .05) difference between the
drugtreated and placebo control mice, determined by the twotailed ttest.

[7] = 62 mg/kg ip qd days 1-20, p < 0.005

Nc1nc2c(sc(=O)n2[C@@H]2O[C@H](CO)[C@@H](O)[C@H]2O)c(=O)[nH]1 [Compound 7, 5-Amino-3-β-D-ribofuranosylthiazolo[4,5-d]pyrimidine-2,7(6H)-dione]
% Cytotoxicity ([1]; day 3, 4320 min): 30% | % Cytotoxicity ([1]; day 5, 7200 min): 24% | % Cytotoxicity ([1]; day 7, 10080 min): 32% | % Cytotoxicity ([1]; day 9, 12960 min): 27% | cytotoxicity versus control group ([1]; p<0.05): statistically significant higherly cytotoxicity than the control group | Mean Survival Time (San Angelo Virus [2]): 9.6 ± 1.6 days | Mean Survival Time (Banzi Virus): 9.3 ± 1.0 days | PFC/10^6 Spleen Cells (sheep red blood cells; 1.9 mg i.p.): 143 ± 140 PFC/10^6 Spleen Cells | PFC/10^6 Spleen Cells (sheep red blood cells; 2.97 mg i.p.): 307 ± 156 PFC/10^6 Spleen Cells and 165 ± 28 PFC/10^6 Spleen Cells | PFC/10^6 Spleen Cells (sheep red blood cells; 3.3 mg i.p.): 176 ± 105 PFC/10^6 Spleen Cells | PFC/10^6 Spleen Cells (sheep red blood cells; 4.95 mg i.p.): 467 ± 170 PFC/10^6 Spleen Cells and 433 ± 172 PFC/10^6 Spleen Cells | PFC/10^6 Spleen Cells (sheep red blood cells; 4.97 mg i.p.): 371 ± 56 PFC/10^6 Spleen Cells | Mean Survival Time (Human Coronavirus; 50 mg/kg): 6.9 ± 2.2 days | Mean Survival Time (Human Coronavirus; 100 mg/kg): 7.2 ± 2.0 days | Mean Survival Time (Human Coronavirus; 200 mg/kg): 7.0 ± 1.4 days | Mean Survival Time ([3]; 200 mg/kg at -24 h, then 50 mg/kg/day day 0-6): 9.5 ± 2.1 days | Mean Survival Time ([3]; 200 mg/kg at -24 h only): 6.0 ± 1.3 days | protection, daily 50 mg/kg versus single 200 mg/kg dose ([3]; daily dose of 50 mg/kg after 200 mg/kg): protected to a greater degree | Mean Survival Time (San Angelo Virus [4]; 50 mg/kg/day, once a day at -2 h and days 2, 4, 6): > 13.0 ± 0.0 days | Mean Survival Time (San Angelo Virus [4]; 100 mg/kg/day, once a day at -2 h and days 2, 4, 6): > 21 days | Mean Survival Time (San Angelo Virus [4]; 200 mg/kg/day, -2 h and days 2, 4, 6, half daily doses twice a day): > 21 days | Mean Survival Time (San Angelo Virus [4]; 200 mg/kg/day, half-daily doses at 24 and 16 h pre-virus (prophylactic)): > 21 days | antiviral activity compared with Ribavirin (San Angelo Virus [4]; therapeutic and prophylactic mode): antiviral activity equal to that of Ribavirin | Mice With Metastatic Foci in Lung (+/7) ([5]; 37 mg/kg ip qd days 1-20): 7/7 | Number of Metastatic Foci in Liver, Range ([5]; 37 mg/kg ip qd days 1-20): 0-17 | Number of Metastatic Foci in Lung, Range ([5]; 37 mg/kg ip qd days 1-20): 1-11 | Number of Metastatic Foci in Liver, Medium ([5]; 37 mg/kg ip qd days 1-20, p < 0.005): 1 | Number of Metastatic Foci in Lung, Median ([5]; 37 mg/kg ip qd days 1-20, p < 0.01): 6 | Mice With Metastatic Foci in Liver (+/7) ([5]; 37 mg/kg ip qd days 1-20, p < 0.05): 4/7 | Mice With Metastatic Foci in Lung (+/7) ([5]; 62 mg/kg ip qd days 1-20): 6/7 | Number of Metastatic Foci in Liver, Range ([5]; 62 mg/kg ip qd days 1-20): 0-1 | Number of Metastatic Foci in Lung, Range ([5]; 62 mg/kg ip qd days 1-20): 0-29 | Mice With Metastatic Foci in Liver (+/7) [5, 7]: 1/7 | Number of Metastatic Foci in Liver, Medium [5, 7]: 0 | Number of Metastatic Foci in Lung, Median ([5]; 62 mg/kg ip qd days 1-20, p < 0.09): 2 | Number of Metastatic Foci in Liver, Range ([5]; 104 mg/kg ip qd days 1-20): 0-0 | Number of Metastatic Foci in Lung, Range ([5]; 104 mg/kg ip qd days 1-20): 0-4 | Mice With Metastatic Foci in Liver (+/7) ([5]; 104 mg/kg ip qd days 1-20, p < 0.0005): 0/7 | Number of Metastatic Foci in Liver, Medium ([5]; 104 mg/kg ip qd days 1-20, p < 0.0009): 0 | Number of Metastatic Foci in Lung, Median ([5]; 104 mg/kg ip qd days 1-20, p < 0.003): 0 | Mice With Metastatic Foci in Lung (+/7) ([5]; 104 mg/kg ip qd days 1-20, p < 0.025): 3/7 | Mean No. Of Metastatic Foci in Lungs (murine B16 melanoma): 8 | Mean Survival Time ([6]; 50 mg/kg/day): 11.8 ± 2.3 days | Mean Survival Time ([6]; 100 mg/kg/day): 11.2 ± 1.5 days | toxicity ([6]; 200 mg per kg in the mouse): partially toxic | Mean Survival Time ([6]; 200 mg/kg/day): 7.2 ± 3.9 days | deaths from drug toxicity ([6]; 200 mg/kg/day, days 1 and 2 post virus inoculation): Three mice died on days 1 and 2 | survival time of the rest of the mice that died ([6]; 200 mg/kg/day, excluding three toxicity deaths): 9.6 ± 0.8 days
